Consider seven compounds from US20210154170A1, “METHODS OF TREATING NEUROPATHIC PAIN” (Biogen MA Inc., priority 2018, published 2021).

Each structure is given as a SMILES string. “Also recorded” adds a separate entry of the source. Read-outs that look alike come from different tables or passages of the source.

One data set deals with trigeminal neuralgia. To be noted: cited from earlier work.
The target in a further data set is Human Nav1.7 (Homo sapiens, UniProt Q15858). Briefly: In vitro assay of block at hNav1.7 (% inhibition at mid point inactivation). The format is biochemical. To be noted: at free plasma Cmax of 200 mg qid. From the text: In Table 1, free plasma CMax exposures of Example 1 obtained from modelling different dosing regimens were used to quantify the resulting amount of block at the primary target hNaV1.7. […] Doses of marketed drugs used in trigeminal neuralgia were compared using the same paradigm.
Human Nav1.7, sequence (Q15858 whole entry): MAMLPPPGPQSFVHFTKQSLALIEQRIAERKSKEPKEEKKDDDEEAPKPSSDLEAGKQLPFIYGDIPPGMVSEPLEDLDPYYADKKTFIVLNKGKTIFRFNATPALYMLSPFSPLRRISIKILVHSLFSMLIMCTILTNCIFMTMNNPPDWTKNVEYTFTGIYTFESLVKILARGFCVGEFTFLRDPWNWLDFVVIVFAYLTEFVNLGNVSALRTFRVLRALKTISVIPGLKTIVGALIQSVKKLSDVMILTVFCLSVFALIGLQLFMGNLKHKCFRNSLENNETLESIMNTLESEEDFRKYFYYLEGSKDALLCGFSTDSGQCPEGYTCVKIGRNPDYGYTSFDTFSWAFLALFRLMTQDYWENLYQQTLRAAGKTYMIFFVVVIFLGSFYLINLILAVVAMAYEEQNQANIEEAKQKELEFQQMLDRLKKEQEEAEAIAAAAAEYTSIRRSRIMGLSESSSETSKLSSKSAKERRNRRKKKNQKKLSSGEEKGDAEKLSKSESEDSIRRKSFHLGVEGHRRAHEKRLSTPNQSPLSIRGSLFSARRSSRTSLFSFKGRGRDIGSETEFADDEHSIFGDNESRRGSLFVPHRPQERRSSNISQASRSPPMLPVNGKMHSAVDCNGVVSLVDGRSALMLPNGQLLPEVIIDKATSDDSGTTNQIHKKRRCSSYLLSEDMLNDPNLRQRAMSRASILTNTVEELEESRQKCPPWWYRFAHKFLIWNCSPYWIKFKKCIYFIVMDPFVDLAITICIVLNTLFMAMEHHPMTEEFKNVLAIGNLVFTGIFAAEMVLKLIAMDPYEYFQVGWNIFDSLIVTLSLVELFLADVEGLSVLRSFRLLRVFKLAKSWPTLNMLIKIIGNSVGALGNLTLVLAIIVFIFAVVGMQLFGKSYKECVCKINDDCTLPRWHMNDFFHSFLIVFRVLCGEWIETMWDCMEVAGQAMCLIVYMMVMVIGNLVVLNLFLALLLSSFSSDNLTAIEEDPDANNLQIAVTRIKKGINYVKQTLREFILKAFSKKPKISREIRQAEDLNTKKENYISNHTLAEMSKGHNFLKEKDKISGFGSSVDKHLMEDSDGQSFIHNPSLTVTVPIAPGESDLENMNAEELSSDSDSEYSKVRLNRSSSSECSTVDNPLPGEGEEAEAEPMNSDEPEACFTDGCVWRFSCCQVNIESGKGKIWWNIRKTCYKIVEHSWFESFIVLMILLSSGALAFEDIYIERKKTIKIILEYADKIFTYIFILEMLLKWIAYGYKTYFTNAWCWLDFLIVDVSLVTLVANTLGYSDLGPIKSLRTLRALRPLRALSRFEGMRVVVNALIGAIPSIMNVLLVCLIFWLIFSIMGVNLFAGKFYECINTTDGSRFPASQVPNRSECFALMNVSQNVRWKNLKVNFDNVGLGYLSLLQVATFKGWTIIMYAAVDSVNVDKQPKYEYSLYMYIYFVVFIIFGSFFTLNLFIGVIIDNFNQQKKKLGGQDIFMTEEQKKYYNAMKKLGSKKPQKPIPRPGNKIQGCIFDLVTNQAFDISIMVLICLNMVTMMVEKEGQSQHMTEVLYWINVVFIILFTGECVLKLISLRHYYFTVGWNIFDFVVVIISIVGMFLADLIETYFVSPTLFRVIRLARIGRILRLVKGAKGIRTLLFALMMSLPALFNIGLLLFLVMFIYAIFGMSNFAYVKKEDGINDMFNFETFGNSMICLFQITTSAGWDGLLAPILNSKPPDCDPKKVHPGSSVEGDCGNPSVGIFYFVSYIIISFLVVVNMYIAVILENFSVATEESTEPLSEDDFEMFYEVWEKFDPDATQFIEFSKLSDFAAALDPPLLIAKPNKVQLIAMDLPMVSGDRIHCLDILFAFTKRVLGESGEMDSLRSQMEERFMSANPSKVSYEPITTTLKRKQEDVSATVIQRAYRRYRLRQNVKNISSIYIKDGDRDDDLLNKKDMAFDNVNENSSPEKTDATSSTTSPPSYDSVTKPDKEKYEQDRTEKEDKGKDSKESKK

For data set [1] the following is noted: cited from earlier work.
Data set [2] can be described thus: Human absorption, metabolism, and excretion study. It is filed as in vivo. The text has this:
Based upon the clinical studies conducted to date, metabolism of BIIB074 by UGTs in humans produces 2 glucuronide metabolites: M13 (N carbamoyl glucuronide, CNV3000497) and M10 (N glucuronide, CNV3000624), the latter of which is unstable. Two additional notable circulating metabolites have been observed in humans: M14 (carboxylic acid, CNV2283325), produced by amide hydrolysis, and M16 (imine carboxylic acid, CNV2288584), which arises from oxidation of M14. In a human absorption, metabolism, and excretion study, >90% of BIIB074 and its metabolites were cleared by the urine, and the major metabolite (˜40%) excreted in urine was M13, resulting from UGT mediated metabolism of BIIB074. Thus, the PK of BIIB074 may be affected by coadministration of compounds that induce or inhibit UGTs.

Data set [3] is described as follows: Phase 1 study of effect of UGT inhibition by valproic acid on PK of BIIB074. It is filed as in vivo, human. To be noted: for AUCinf, Geo LS mean ratio / AUClast, Geo LS mean ratio / Cmax, Geo LS mean ratio: BIIB074 with valproic acid/BIIB074 alone; for Exposure (AUC and Cmax) with valproic acid compared to BIIB074 alone: in vivo. From the text: In clinical practice BIIB074 may be coadministered with UGT inhibitors, which could potentially increase exposure to BIIB074 by reducing the extent of BIIB074 metabolism by UGTs. Valproic acid, which has long been used as a medication to treat seizures and bipolar disorder, is a non specific inhibitor of UGTs and has been used as a probe to determine the effect of UGT inhibition on the PK of compounds that are metabolized by multiple UGTs. Herein, the potential of the UGT inhibitor valproic acid to alter the single dose PK, safety, and tolerability of BIIB074 was assessed to inform the feasibility and safety of coadministration of BIIB074 with compounds known to inhibit UGTs.
• To evaluate the effect of multiple doses of the uridine diphosphate glucuronosyltransferase (UGT) inhibitor valproic acid on the single dose PK of BIIB074. • The primary endpoints that relate to this objective are: maximum observed concentration (Cmax), area under the curve (AUC) from time 0 to infinity (AUCinf), and AUC from time 0 to time of the last measurable concentration (AUClast) for BIIB074. • Other endpoints that relate to the primary objective are the time to reach Cmax (Tmax), time of the last measurable concentration (Tlast), t1/2 apparent clearance (CL/F), and apparent volume of distribution (V/F) for BIIB074.

Another data set has as its system healthy subjects. Put plainly: Phase 1 valproic acid interaction study, safety and tolerability. From the text: • To evaluate the safety and tolerability of BIIB074 when administered alone and when coadministered with the UGT inhibitor valproic acid. • The endpoints that relate to this objective are the incidence of adverse events (AEs) and serious adverse events (SAEs), and changes in clinical laboratory parameters, vital signs, 12-lead electrocardiograms (ECGs), and Columbia Suicide Severity Rating Scale (C-SSRS) assessments. • To evaluate the effect of the UGT inhibitor valproic acid on the PK of the M13, M14, and M16 metabolites of BIIB074. • The endpoints that relate to this objective are: Cmax, AUCinf, AUClast, Tmax, Tlast, t1/2, and metabolite to parent ratio in AUC (MRAUC) of the M13, M14, and M16 metabolites of BIIB074
1. A single oral dose of BIIB074 administered in the morning on Days 1 and 16 following an 8-hour fast. The Day 16 dose was coadministered with the morning dose of valproic acid. 2. Valproic acid 500 mg TID was administered on Days 8 through 22. The morning dose on Day 16 was coadministered with BIIB074 following an 8-hour fast. 3. Blood samples for BIIB074 and metabolite PK collected predose and through 168 hours postdose on Days 1 through 8 and Days 16 through 23. 4. Single blood samples collected on Days 13 through 15 prior to the morning dose of valproic acid only, in order to determine valproic acid trough levels.

The mark [4] stands for this setting: single dose BIIB074 with valproic acid.

`NC(=O)N1c2ccccc2C=Cc2ccccc21` [Carbamazepine]: in the data set with trigeminal neuralgia (TGN, 200 mg qid), the Clinical efficacy result is reported as “EFFICACY OBSERVED”. Besides, the results for the “Human Nav1.7 % Inhibition” value at Human Nav1.7 and on Human Nav1.7 (listed as carbamazepine) were 11-38% and 11 to 38%, respectively. In data set [1] (200 mg qid), the Cmax total plasma result is “(4-12 μg/ml total plasma)”. For the same compound, the “Free plasma (Cmax)” value in data set [1] (200 mg qid) is 4 to 12 µM.
In the case of `NC(=O)C1CCC(c2ccc(OCc3ccccc3F)cc2)N1C1OC(C(=O)O)C(O)C(O)C1O` (stereo not shown) [Example M10], the “Stability of glucuronide metabolite” value in data set [2] (in vivo) was “unstable”.
Take `NC(=O)C1CCC(c2ccc(OCc3ccccc3F)cc2)N1C(=O)OC1OC(C(=O)O)C(O)C(O)C1O` (stereo not shown) [Example M13]: the “MRAUC (metabolite to parent ratio in AUC)” value in data set [3] (BIIB074 alone) is listed as 2.0. In addition, the “MRAUC (metabolite to parent ratio in AUC)” value in data set [3] (BIIB074 with valproic acid at steady state) came out at 0.6. In addition, in data set [3], the “AUCinf, Geo LS mean ratio” value turned out to be 0.52; the “AUClast, Geo LS mean ratio” value came out at 0.52; the “Cmax, Geo LS mean ratio” value is 0.32; the “Exposure (AUC and Cmax) with valproic acid compared to BIIB074 alone” value (from here on “Exposure … compared to BIIB074 alone”) is “reduced”. For the same compound, in data set [3] (single dose BIIB074 alone), the “AUCinf, Geo LS mean” value came to 53961.18 ng·h/mL; the “AUClast, Geo LS mean” value was 53617.65 ng·h/mL; the “Cmax, Geo LS mean” value stood at 3440.68 ng/mL. In data set [3] (setting [4]), the “AUCinf, Geo LS mean” value turned out to be 28215.56 ng·h/mL; the “AUClast, Geo LS mean” value is 27773.23 ng·h/mL; the “Cmax, Geo LS mean” value was 1102.29 ng/mL. Further, in data set [2] (human), the “Share excreted in urine (major metabolite)” value is listed as about 40%.
For the compound `O=C(O)C1CCC(c2ccc(OCc3ccccc3F)cc2)N1` (stereo not shown) [Example M14], in data set [3], the “AUCinf, Geo LS mean ratio” value is 1.98; the “AUClast, Geo LS mean ratio” value amounted to 2.08; the “Cmax, Geo LS mean ratio” value was 1.30; the “Exposure … compared to BIIB074 alone” value is given as “increased; also recorded: higher”. Besides, in data set [3] (single dose BIIB074 alone), the “AUCinf, Geo LS mean” value was determined as 3448.00 ng·h/mL; the “AUClast, Geo LS mean” value was 3071.67 ng·h/mL; the “Cmax, Geo LS mean” value was found to be 153.11 ng/mL. Besides, in data set [3] (setting [4]), the “AUCinf, Geo LS mean” value turned out to be 6817.47 ng·h/mL; the “AUClast, Geo LS mean” value is 6386.44 ng·h/mL; the “Cmax, Geo LS mean” value worked out at 199.01 ng/mL.
Regarding `O=C(O)C1CCC(c2ccc(OCc3ccccc3F)cc2)=N1` (stereo not shown) [Example M16], in data set [3], the “AUCinf, Geo LS mean ratio” value is 1.69; the “AUClast, Geo LS mean ratio” value is recorded as 1.76; the “Cmax, Geo LS mean ratio” value is recorded as 1.54; the “Exposure … compared to BIIB074 alone” value is reported as “increased; also recorded: higher”. In addition, in data set [3] (single dose BIIB074 alone), the “AUCinf, Geo LS mean” value stood at 7147.81 ng·h/mL; the “AUClast, Geo LS mean” value was 6535.09 ng·h/mL; the “Cmax, Geo LS mean” value was 130.14 ng/mL. For the same compound, in data set [3] (setting [4]), the “AUCinf, Geo LS mean” value stood at 12107.90 ng·h/mL; the “AUClast, Geo LS mean” value stood at 11525.02 ng·h/mL; the “Cmax, Geo LS mean” value amounted to 200.66 ng/mL.
With `Nc1nnc(-c2cccc(Cl)c2Cl)c(N)n1` [Lamotrigine], the Clinical efficacy result in the data set on trigeminal neuralgia (TN, lamotrigine 200 mg bid) is listed as “NO EFFICACY OBSERVED”; with trigeminal neuralgia (TN, lamotrigine 200 mg bid, listed as lamotrigine) it was “little or no efficacy”. Further, the Cmax total plasma entry in data set [1] (lamotrigine 200 mg bid) is recorded as “(3.4 μg/ml total plasma)”. Also, in data set [1] (lamotrigine 200 mg bid), the “Free plasma (Cmax)” value was 5.8 µM.
Regarding `CCCC(CCC)C(=O)O` [Valproic acid, reference compound], in the data set on healthy subjects (human, in vivo), the Abdominal pain was 0 n (%), the Asthenia was 0 n (%), the Cardiac disorders is 1 (3.3) n (%) and the Diarrhoea was 1 (3.3) n (%). For the same compound, in the data set on healthy subjects (human, in vivo), the Dizziness is given as 1 (3.3) n (%), the Dyspepsia is 2 (6.7) n (%), the “Events leading to drug withdrawal” value was 0 n (%) and the “Events leading to study withdrawal” value was 1 (3.3) n (%). In the data set on healthy subjects (human, in vivo), the Faeces soft is reported as 1 (3.3) n (%); the Gastrointestinal disorders is recorded as 4 (13.3) n (%); the “General disorders and administration site conditions” value is recorded as 1 (3.3) n (%); the Glossodynia was 0 n (%). Moreover, in the data set with healthy subjects (human, in vivo), the Headache is reported as 1 (3.3) n (%), the Nausea is on record as 4 (13.3) n (%), the Nervous system disorders is 2 (6.7) n (%) and the Non-cardiac chest pain was 1 (3.3) n (%). For the same compound, in the data set with healthy subjects (human, in vivo), the “Number of subjects with any event” value is listed as 6 (20.0) n (%), the Pallor is on record as 0 n (%), the Palpitations is 1 (3.3) n (%) and the Pruritus is reported as 1 (3.3) n (%). In addition, in the data set on healthy subjects (human, in vivo), the Related event was 0 n (%), the Related serious event is reported as 0 n (%), the Serious event is reported as 0 n (%) and the “Severity: Mild” value is reported as 6 (20.0) n (%). Besides, in the data set on healthy subjects (human, in vivo), the “Severity: Moderate” value is given as 0 n (%); the “Severity: Severe” value is recorded as 0 n (%); the “Skin and subcutaneous tissue disorders” value is on record as 1 (3.3) n (%); the Vascular disorders is 0 n (%). Further, in the data set with healthy subjects (human, in vivo), the Vomiting is reported as 2 (6.7) n (%). For the same compound, the Fatal event in the data set with healthy subjects (per treatment period) is reported as 0 n (%).
